Our source for the inhibition values is patent EP2272817A1, “PAI-1 INHIBITOR” (Institute of Medicinal Molecular Design, Inc., priority 2008, dated 2009).

The experiment has as its target recombinant human PAI-1 (Homo sapiens, UniProt P05121). Nature of the experiment: Test Example 2: Human PAI-1 Inhibitory Activity (pH 7.4 HEPES buffer, 10 minutes incubation with two-chain tPA). The class given is biochemical. The conditions noted are these: read-out: Inhibition Rate of PAI-1 Activity (%). Also noted: purchased Molecular Innovations, Inc. The method, then:
0.1 M HEPES, 0.1 M NaCl. 1 mM EDTA. 0.1 % Polyethylene glycol 8,000 (Hampton Research Corporation),
2 mM Dimethyldecylphoshine oxide [Apo-10] (Fluka Corporation)

Sequence of recombinant human PAI-1 (P05121 24-402): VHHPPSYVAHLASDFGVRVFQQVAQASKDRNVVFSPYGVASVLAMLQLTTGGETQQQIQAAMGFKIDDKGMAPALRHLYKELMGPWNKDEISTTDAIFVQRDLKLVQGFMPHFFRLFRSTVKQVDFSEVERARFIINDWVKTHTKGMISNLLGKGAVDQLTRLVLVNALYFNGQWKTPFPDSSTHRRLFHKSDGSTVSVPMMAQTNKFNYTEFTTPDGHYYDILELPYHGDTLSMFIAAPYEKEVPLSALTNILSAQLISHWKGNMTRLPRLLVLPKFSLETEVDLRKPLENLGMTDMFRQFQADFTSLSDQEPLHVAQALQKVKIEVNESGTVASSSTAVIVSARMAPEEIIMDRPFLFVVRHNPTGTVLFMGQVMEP

Broadly, the inhibition is the percentage by which the read-out fell short of the control. Turning to `CC(C)(C)c1ccc(Oc2cc(-c3cc(Cl)ccc3Cl)ccc2OCC(=O)O)cc1` [Compound 455], the inhibition at 0.1 µM came to 9%, the inhibition at 0.3 µM is 20%, the inhibition at 1 µM turned out to be 93% and the inhibition at 3 µM is 99%.

As to `CC(C)(C)c1ccc(Oc2cc(-c3ccccc3OC(F)(F)F)ccc2OCC(=O)O)cc1` [Compound 456], the inhibition at 0.1 µM stood at 7%, the inhibition at 0.3 µM came out at 13%, the inhibition at 1 µM turned out to be 70% and the inhibition at 3 µM turned out to be 98%.

On to `CC(C)(C)c1ccc(Oc2cc(-c3ccc(Cl)cc3)ccc2OCC(=O)O)cc1` [Compound 457], for which the inhibition at 0.1 µM is 21%, the inhibition at 0.3 µM came to 18%, the inhibition at 1 µM was determined as 63% and the inhibition at 3 µM is above 99%.

Turning to `CC(C)(C)c1ccc(Oc2cc(-c3ccc(F)cc3)ccc2OCC(=O)O)cc1` [Compound 459], the inhibition at 0.1 µM came to 26%, the inhibition at 0.3 µM is 31%, the inhibition at 1 µM amounted to 42% and the inhibition at 3 µM came to 86%.

With `CC(C)Oc1ccc(-c2ccc(OCC(=O)O)c(Oc3ccc(C(C)(C)C)cc3)c2)cc1` [Compound 460], the inhibition at 0.1 µM amounted to 1%, the inhibition at 0.3 µM worked out at 8%, the inhibition at 1 µM is 63% and the inhibition at 3 µM is above 99%.

Consider `CCCCOc1ccc(Oc2cc(-c3ccc(OC(F)(F)F)cc3)ccc2CCC(=O)O)cc1` [Compound 461], for which the inhibition at 0.1 µM is 1%, the inhibition at 0.3 µM was 26%, the inhibition at 1 µM came to 95% and the inhibition at 3 µM came to 98%.

Regarding `CC(C)(C)c1ccc(Sc2cc(-c3ccc(OC(F)(F)F)cc3)ccc2/C=C/C(=O)O)cc1` [Compound 462], the inhibition at 0.1 µM was 37%, the inhibition at 0.3 µM worked out at 94%, the inhibition at 1 µM was determined as 97% and the inhibition at 3 µM was determined as 95%.

Take `CC(C)(C)c1ccc(-c2ccc(OCC(=O)O)c(Oc3cccc(C(C)(C)C)c3)c2)cc1` [Compound 465]: the inhibition at 0.1 µM stood at 10%, the inhibition at 0.3 µM came to 17%, the inhibition at 1 µM stood at 87% and the inhibition at 3 µM was 98%.

Turning to `CC(C)(C)c1ccc(Oc2cc(-c3ccccc3OC(F)(F)F)ccc2/C=C/C(=O)O)cc1` [Compound 466], the inhibition at 0.1 µM is 4%, the inhibition at 0.3 µM was 9%, the inhibition at 1 µM is 88% and the inhibition at 3 µM is above 99%.

As to `CC(C)(C)c1ccc(Oc2cc(-c3ccccc3OC(F)(F)F)ccc2CCC(=O)O)cc1` [Compound 467], the inhibition at 0.1 µM came to 2%, the inhibition at 0.3 µM was found to be 6%, the inhibition at 1 µM was found to be 73% and the inhibition at 3 µM was above 99%.

As to `CCCCOc1ccc(-c2ccc(OCC(=O)O)c(Oc3ccc(C(C)(C)C)cc3)c2)cc1` [Compound 468], the inhibition at 0.1 µM came out at 1%, the inhibition at 0.3 µM is 5%, the inhibition at 1 µM is 86% and the inhibition at 3 µM turned out to be 97%.

For the molecule `CC(C)(C)c1ccc(Oc2cc(-c3ccc4ccccc4c3)ccc2/C=C/C(=O)O)cc1` [Compound 469], the inhibition at 0.1 µM came to 4%, the inhibition at 0.3 µM was 22%, the inhibition at 1 µM was determined as 96% and the inhibition at 3 µM is above 99%.

Consider `CC(C)(C)c1ccc(Oc2cc(-c3ccc4ccccc4c3)ccc2CCC(=O)O)cc1` [Compound 470], for which the inhibition at 0.1 µM was found to be 3%, the inhibition at 0.3 µM came out at 16%, the inhibition at 1 µM turned out to be 87% and the inhibition at 3 µM is above 99%.

As to `CC(C)(C)c1ccc(Oc2cc(-c3ccc(C#N)cc3)ccc2OCC(=O)O)cc1` [Compound 471], the inhibition at 0.1 µM is 5%, the inhibition at 0.3 µM worked out at 7%, the inhibition at 1 µM came to 11% and the inhibition at 3 µM was 49%.

`CCCCOc1cccc(Oc2cc(-c3ccc(OC(F)(F)F)cc3)ccc2CCC(=O)O)c1` [Compound 472]: the inhibition at 0.1 µM was 15%, the inhibition at 0.3 µM is 14%, the inhibition at 1 µM was determined as 71% and the inhibition at 3 µM is above 99%.

Regarding `CC(C)(C)Oc1ccc(Oc2cc(-c3ccc(OC(F)(F)F)cc3)ccc2CCC(=O)O)cc1` [Compound 473], the inhibition at 0.1 µM is 15%, the inhibition at 0.3 µM was 9%, the inhibition at 1 µM was found to be 26% and the inhibition at 3 µM is above 99%.

In the case of `O=C(O)CCc1ccc(-c2ccc(OC(F)(F)F)cc2)cc1Oc1ccc(C(F)(F)F)cc1` [Compound 474], the inhibition at 0.1 µM turned out to be 2%, the inhibition at 0.3 µM was 11%, the inhibition at 1 µM was 43% and the inhibition at 3 µM is above 99%.

Consider `CCC(C)(C)c1ccc(Oc2cc(-c3ccc(OC(F)(F)F)cc3)ccc2CCC(=O)O)cc1` [Compound 475], for which the inhibition at 0.1 µM was found to be 4%, the inhibition at 0.3 µM came out at 27%, the inhibition at 1 µM was 94% and the inhibition at 3 µM is above 99%.

On to `O=C(O)CCc1ccc(-c2ccc(OC(F)(F)F)cc2)cc1Oc1ccc2ccccc2c1` [Compound 476], for which the inhibition at 0.1 µM amounted to 0%, the inhibition at 0.3 µM was 3%, the inhibition at 1 µM stood at 65% and the inhibition at 3 µM was above 99%.

Take `O=C(O)/C=C/c1ccc(-c2ccc(OC(F)(F)F)cc2)cc1Oc1ccc(OC(F)(F)F)cc1` [Compound 477]: the inhibition at 0.1 µM came out at 7%, the inhibition at 0.3 µM turned out to be 21%, the inhibition at 1 µM was determined as 60% and the inhibition at 3 µM is above 99%.

With `CC(C)(C)c1ccc(-c2ccc(/C=C/C(=O)O)c(Oc3ccc(OC(F)(F)F)cc3)c2)cc1` [Compound 478], the inhibition at 0.1 µM came to 11%, the inhibition at 0.3 µM stood at 33%, the inhibition at 1 µM turned out to be 90% and the inhibition at 3 µM was above 99%.

Take `O=C(O)CCc1ccc(-c2ccc(OC(F)(F)F)cc2)cc1Oc1ccc(OC(F)(F)F)cc1` [Compound 479]: the inhibition at 0.1 µM was 17%, the inhibition at 0.3 µM stood at 14%, the inhibition at 1 µM was determined as 70% and the inhibition at 3 µM is above 99%.

For the molecule `CC(C)(C)c1ccc(-c2ccc(CCC(=O)O)c(Oc3ccc(OC(F)(F)F)cc3)c2)cc1` [Compound 480], the inhibition at 0.1 µM worked out at 17%, the inhibition at 0.3 µM is 22%, the inhibition at 1 µM came out at 80% and the inhibition at 3 µM is above 99%.

For `CCCCc1ccc(Oc2cc(-c3ccc(OC(F)(F)F)cc3)ccc2OCC(=O)O)cc1` [Compound 481], the inhibition at 0.1 µM was found to be 19%, the inhibition at 0.3 µM came out at 16%, the inhibition at 1 µM came out at 70% and the inhibition at 3 µM was above 99%.

For `CC(CCOc1ccc(-c2ccc(OC(F)(F)F)cc2)cc1OCc1ccc(C(C)(C)C)cc1)C(=O)O` (centres unmarked) [Compound 482], the inhibition at 0.1 µM stood at 7%, the inhibition at 0.3 µM is 12%, the inhibition at 1 µM amounted to 52% and the inhibition at 3 µM is above 99%.

Turning to `CC(C)(C)c1ccc(Oc2cc(-c3cc(Cl)ccc3Cl)ccc2/C=C/C(=O)O)cc1` [Compound 483], the inhibition at 0.1 µM was determined as 0%, the inhibition at 0.3 µM was found to be 8%, the inhibition at 1 µM came out at 76% and the inhibition at 3 µM was above 99%.

Regarding `CC(C)(C)c1ccc(Oc2cc(-c3cc(Cl)ccc3Cl)ccc2CCC(=O)O)cc1` [Compound 484], the inhibition at 0.1 µM was found to be 0%, the inhibition at 0.3 µM turned out to be 7%, the inhibition at 1 µM was found to be 73% and the inhibition at 3 µM was above 99%.

`CC(C)(C)c1ccc(Oc2cc(-c3cccc([N+](=O)[O-])c3)ccc2OCC(=O)O)cc1` [Compound 485]: the inhibition at 0.1 µM came to 0%, the inhibition at 0.3 µM came to 6%, the inhibition at 1 µM worked out at 11% and the inhibition at 3 µM was found to be 69%.

Regarding `O=C(O)/C=C/c1ccc(-c2ccc(OC(F)(F)F)cc2)cc1OCCCOCc1ccccc1` [Compound 487], the inhibition at 0.1 µM is 0%, the inhibition at 0.3 µM was determined as 3%, the inhibition at 1 µM is 26% and the inhibition at 3 µM was 98%.

As for `O=C(O)CCc1ccc(-c2ccc(OC(F)(F)F)cc2)cc1OCCCOCc1ccccc1` [Compound 488], the inhibition at 0.1 µM was 0%, the inhibition at 0.3 µM stood at 10%, the inhibition at 1 µM worked out at 36% and the inhibition at 3 µM came to 91%.

With `O=C(O)/C=C/c1ccc(-c2ccc(OC(F)(F)F)cc2)cc1OCCCSc1ccccc1` [Compound 489], the inhibition at 0.1 µM worked out at 12%, the inhibition at 0.3 µM was 14%, the inhibition at 1 µM came to 69% and the inhibition at 3 µM is above 99%.

As for `CC(C)c1ccccc1Oc1cc(-c2ccc(OC(F)(F)F)cc2)ccc1/C=C/C(=O)O` [Compound 490], the inhibition at 0.1 µM was 6%, the inhibition at 0.3 µM came out at 13%, the inhibition at 1 µM amounted to 91% and the inhibition at 3 µM was above 99%.

For the molecule `CC(C)c1ccccc1Oc1cc(-c2ccc(OC(F)(F)F)cc2)ccc1CCC(=O)O` [Compound 491], the inhibition at 0.1 µM is 6%, the inhibition at 0.3 µM amounted to 10%, the inhibition at 1 µM is 66% and the inhibition at 3 µM was above 99%.

Regarding `O=C(O)COc1ccc(-c2ccc(OC(F)(F)F)cc2)cc1Oc1ccc(OCc2ccccc2)cc1` [Compound 492], the inhibition at 0.1 µM came out at 5%, the inhibition at 0.3 µM was found to be 20%, the inhibition at 1 µM was above 99% and the inhibition at 3 µM was above 99%.

Take `Cc1cc(C)cc(Oc2cc(-c3ccc(C(C)(C)C)cc3)ccc2/C=C/C(=O)O)c1` [Compound 494]: the inhibition at 0.1 µM is 9%, the inhibition at 0.3 µM is 24%, the inhibition at 1 µM amounted to 87% and the inhibition at 3 µM stood at 92%.
